In paper PMC9964390, “Design, Synthesis and Phenotypic Profiling of Simplified Gedatolisib Analogues” (Pharmaceuticals, 2023):
Values after ≈ are worked out from the molar mass of the structure shown. Where two headings read alike, the source gives them in different places.

Key:
[1] = test system: CCRF-CEM (human leukemia cell line); parameters: method as in Gazi and coworkers [14]; settings: ref Gazi and coworkers [14]; cited from earlier work
[2] = test system: MCF7 (breast cancer cells); parameters: method as in Mallon and coworkers [15]; settings: ref Mallon and coworkers [15]; cited from earlier work
[3] = test system: human peripheral blood mononuclear cells (PBMCs); test: PBMC viability assay (72 h MTT); format: cell-based; settings: highest concentration studied 50 μM
Procedure: Donor blood was collected and EDTA (ethylenediamine tetraacetic acid) was added to the sterile laminar flow in a 1:20 ratio. In a 15 mL falcon tube, 4.5 mL of Ficoll gradient was added, and then 9 mL of blood was added over the gradient in a 1:2 ratio. The tubes were centrifuged for 40 min at a speed of 750× g with an acceleration of 2 and a brake of 0. The ring of mononuclear cells formed was collected and added to a new tube.
Tubes with PBMCs were centrifuged in an incomplete RPMI medium for 10 min at 580× g with an acceleration of 8 and a brake of 9. The supernatant was discarded, and the cells were resuspended in 1 mL of RPMI medium supplemented with 20% […]. PBMCs were added to 96-well plates at a concentration of 1 × 10^5 cells per well. […]
After incubation, each well received 20 µL of MTT (5 mg/mL), followed by incubation for 4 h in the CO2 oven and centrifugation for 12 min at 1200× g. The supernatant from each well was taken, and 100 µL of isopropyl alcohol was added to solubilize the formazan crystals. The absorbance of the plates was measured at 570 nm in the Flex Station equipment.

[4] = pH-dependent aqueous solubility (UV spectrophotometry); format: physicochemical; settings: aqueous buffer, thermodynamic from solid, 37 °C
Procedure: A stock solution of the target compound was prepared by dissolving 1 mg in methanol, and the wavelength of greatest absorption of each compound was obtained by scanning between wavelengths from 200 nm to 500 nm. Six dilutions were prepared from the stock solution and the absorbance reading in the UV spectrophotometer (SpectraMax M5, Molecular Devices, USA). The calibration curve with linear regression was created with the values obtained, and the solubility test was measured by correlating the concentration with the absorbance obtained by ultraviolet. Each compound was added in excess at phosphate buffer solution pH 5.8 and 7.4 to obtain a supersaturated solution that was kept under stirring for 4 h at 37 °C and then was filtered through a 0.45 µm filter for reading at the corresponding wavelengths. The solubility was determined through the equation of the straight line obtained by the linear regression of the calibration curve of the compounds [24, 25].

[5] = Microsomal metabolic stability; format: in vitro ADME; settings: for Metabolization Rates: 10 μM; for half-life at 10 μM / recovery at 10 µM: rat
Procedure: To investigate the metabolic stability of LASSBio-2252 (5f), the compound was incubated with rat liver microsomes in the presence and in the absence of the NADPH-generating system. Metabolization rate, half-life (t1/2) and apparent intrinsic clearance (Clapp) were calculated.
The metabolic stability of compound 5f (LASSBio-2252) was studied as previously described, and 1 mg/mL of […] rat microsomes was incubated with compound […] (10 μM) in the presence and in the absence of the cofactor (i.e., NADPH generating system). After mixing and incubation at 37 °C in a shaking water bath for 1 h, 500 µL cold acetonitrile containing the internal standard was added to terminate the reaction at different time intervals (0, 15, 30, 45 and 60 min). After mixing and centrifugation at 10,500× g for 15 min at 4 °C, the supernatant was filtered and then was injected into the HPLC system using a mixture of methanol: water acidified (0.1% formic acid, pH 3.0) (50:50, v/v) as the mobile phase at a flow rate of 1.0 mL/min. After analysing the results, the pharmacokinetic parameters were calculated as microsomal half-life (t1/2) and apparent intrinsic clearance (Clapp).

[6] = test system: PI3K activation and phosphorylation in MOLT-4 cell line; test: Muse PI3K Activation Dual Detection Kit; format: cell-based, human; settings: MOLT-4, concentration 10 times lower than its CC50
Procedure: The methodology evaluates the activation and phosphorylation of PI3K and was performed from the labelling with the Guava Muse Luminex® PI3K Activation Dual Detection Kit (catalog n^o. MCH200103, Luminex) containing the anti-AKT/PKB-PECy5 antibody to measure total PI3K and the anti-phospho-AKT (Ser473)-Alexa Fluor® 555 antibody for measurement of activated PI3K.
Following 48 h of incubation in an incubator at 37 °C with 5% CO2, 1 mL of the cell solution was transferred to an Eppendorf tube, washed with PBS and centrifuged at 300× g for 5 min. The supernatant was discarded, and the pellet formed was resuspended in 500 µL of PBS. The samples were again centrifuged at 300× g for 5 min and the supernatant discarded.
Then the cell solutions were resuspended in 200 µL of assay buffer (Part no. CS202124), followed by the addition of 200 µL of fixation buffer (Part n^o. CS202122), ending up with a total volume of 400 µL per sample. The samples were incubated for 5 min on ice and centrifuged at 300× g for 5 min and the supernatant discarded.
Cells were permeabilized by adding 200 µL of ice-cold permeabilization buffer (Part n^o. CS202125) and then incubated on ice for 5 min and centrifuged at 300× g for 5 min, and the supernatant was discarded. The formed pellets were resuspended in 450 µL of assay buffer and vortexed at medium speed. In total, 90 µL of the solution from each sample was aliquoted into a new tube, and 10 µL of the cocktail solution containing Anti-phospho-Akt (Ser473), Alexa Fluor®555 and Anti-Akt/PKB, Pecy5 was added. The samples were homogenised and incubated for 30 min in the dark at room temperature.
After the incubation step, 100 µL of assay buffer was added per sample and centrifuged at 300× g for 5 min, and the supernatant was discarded. The formed pellets were resuspended in 200 µL of assay buffer and vortexed, and the samples were read in Guava Muse Luminex®. Data from three independent experiments performed in duplicate were analysed in the Prism6 program to determine the percentage of cells expressing activated and inactivated PI3K.

[7] = rat liver microsomes, NADPH-generating system absent
[8] = rat liver microsomes, NADPH-generating system present

Which CC50 [1] does the source give for `CN(C)C1CCN(C(=O)c2ccc(NC(=O)Nc3ccc(-c4nc(N5CCOCC5)nc(N5CCOCC5)n4)cc3)cc2)CC1` [Gedatolisib, gedatolisib] here?
Its CC50 is 23 nM.

And the CC50 [2]?
Its CC50 is 36 nM.

What about the “Emax (reduction of viability of PBMCs)” value [3] of the same compound?
The value was 33%.

Which solubility at 4 h ([4]; phosphate buffer pH 5.8 (duodenum), read-out: Solubility pH 5.8) does the source give for `c1ccc(N2CCN(c3nc(N4CCCNCC4)nc(N4CCOCC4)n3)CC2)cc1` [5f, 4-(4-(1,4-Diazepan-1-yl)-6-(4-phenylpiperazin-1-yl)-1,3,5-triazin-2-yl)morpholine] here?
Its solubility at 4 h is 39.3 µM (≈ 16.7 µg/mL).

And the solubility at 4 h ([4]; phosphate buffer pH 7.4 (plasma), read-out: Solubility pH 7.4)?
The solubility at 4 h was 42.4 µM (≈ 18 µg/mL).

And the “Elimination Rate Constant (k)” value [5, 7]?
The value was 0.0017.

And the “Metabolization Rates” value [5, 7]?
The value was 9.09%.

What about the “Elimination Rate Constant (k)” value [5, 8] of the same compound?
Its value is 0.0015.

And the “Metabolization Rates” value [5, 8]?
The value was 2.90%.

And the half-life at 10 μM ([5]; liver microsomes)?
The half-life at 10 μM was over 360 min.

What about the recovery at 10 µM ([5]; liver microsomes, NADPH-generating system absent) of the same compound?
The recovery at 10 µM was 100%.

And the recovery at 10 µM ([5]; liver microsomes, NADPH-generating system present)?
Its recovery at 10 µM is 101%.

What about the half-life at 10 μM [5, 7] of the same compound?
Its half-life at 10 μM is 408 min.

What about the half-life at 10 μM [5, 8] of the same compound?
The half-life at 10 μM was 462 min.

What about the “reduction of PI3K-mediated phosphorylation” value [6] of the same compound?
Its value is 79%.
